Columns and labels:
[1] = biological target: T1, human GIP receptor (hGIPR) (Homo sapiens, UniProt P48546); test: In vitro cellular cAMP assay for GIP receptor efficacy (HEK-293 cell line over-expressing receptor); type: cell-based; conditions: EC50 hGIPR 0.1% BSA, HEK-293, 0.1% BSA
T1 sequence (P48546 22-466): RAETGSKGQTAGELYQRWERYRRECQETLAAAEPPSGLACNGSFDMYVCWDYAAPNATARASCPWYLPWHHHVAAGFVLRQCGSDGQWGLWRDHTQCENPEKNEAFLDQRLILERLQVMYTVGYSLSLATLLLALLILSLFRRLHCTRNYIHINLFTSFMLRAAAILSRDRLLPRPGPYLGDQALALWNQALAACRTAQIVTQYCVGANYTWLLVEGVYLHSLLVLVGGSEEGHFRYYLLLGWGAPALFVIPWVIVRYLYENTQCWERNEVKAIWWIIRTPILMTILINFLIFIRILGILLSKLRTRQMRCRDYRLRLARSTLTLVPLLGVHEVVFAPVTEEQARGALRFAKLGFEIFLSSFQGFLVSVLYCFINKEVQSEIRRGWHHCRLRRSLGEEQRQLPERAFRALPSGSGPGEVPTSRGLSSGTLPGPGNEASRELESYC

[2] = Pharmacokinetic evaluation in mice; type: in vivo, female C57Bl/6 mice
Experimental: (§1) Compounds were administered in a suitable buffer system, e.g. PBS buffer solution at pH7.4 or DPBS solution at concentrations of 0.05, 0.1, 0.5 or 1 mg/ml depending on dose, species and administration volume. Female C57Bl/6 mice were dosed 0.25 mg/kg, 0.5 mg/kg or 1 mg/kg intravenously (i.v.) or subcutaneously (s.c.). The mice were sacrificed, and blood samples were collected after 0.08, 0.25, 0.5, 1, 2, 4, 8, 24, 32, and 48 h post i.v. application and 0.25, 0.5, 1, 2, 4, 8, 24, 32, and 48 h post s.c. application, respectively. Plasma samples were analysed after protein precipitation via liquid chromatography mass spectrometry (LC/MS). PK parameters and half-life were calculated using Phoenix-WinNonlin 8.1 using a non-compartmental model and linear trapezoidal interpolation calculation. Pharmacokinetic profiles were determined as described in Methods.

[3] = biological target: human GLP-1 receptor (hGLP-1R) (Homo sapiens, UniProt P43220); test: In vitro cellular cAMP assay for GLP-1 receptor efficacy (HEK-293 cell line over-expressing receptor); type: cell-based; conditions: HEK-293, 0.1% BSA
[4] = Pharmacokinetic evaluation in rats; type: in vivo; conditions: male, SD, rat
Experimental: as §1, with “Male SD rats” for “Female C57Bl/6 mice”, “Blood” for “The mice were sacrificed, and blood”

human GIP receptor = biological target: T2, human GIP receptor (Homo sapiens, UniProt P48546); test: In vitro cellular cAMP assay for GIP receptor efficacy (human adipocytes); type: cell-based; conditions: for EC50: read-out: hGIPR EC50; for Emax: read-out: hGIPR Emax
T2 construct: human adipocytes endogenously expressing the human GIP receptor; host or cells: human preadipocytes (Lonza) differentiated to adipocytes
T2 sequence (P48546 22-466): T1 sequence (P48546 22-466)
Outline: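 cAMP is read by HTRF (665/620 nm ratio, 1 h after reagents in lysis buffer) following 30 min compound exposure at room temperature. Cells are human preadipocyte-derived adipocytes, differentiated 6 days with insulin, dexamethasone, IBMX (200 μM), PPARγ agonist and L-thyroxine, seeded 5000 per well.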

[5] = female, C57Bl/6, mouse, in vivo, iv, 0.25 mg/kg
[6] = female, C57Bl/6, mouse, in vivo, sc, 0.5 mg/kg

Sequence of human GLP-1 receptor (hGLP-1R) (P43220 24-463): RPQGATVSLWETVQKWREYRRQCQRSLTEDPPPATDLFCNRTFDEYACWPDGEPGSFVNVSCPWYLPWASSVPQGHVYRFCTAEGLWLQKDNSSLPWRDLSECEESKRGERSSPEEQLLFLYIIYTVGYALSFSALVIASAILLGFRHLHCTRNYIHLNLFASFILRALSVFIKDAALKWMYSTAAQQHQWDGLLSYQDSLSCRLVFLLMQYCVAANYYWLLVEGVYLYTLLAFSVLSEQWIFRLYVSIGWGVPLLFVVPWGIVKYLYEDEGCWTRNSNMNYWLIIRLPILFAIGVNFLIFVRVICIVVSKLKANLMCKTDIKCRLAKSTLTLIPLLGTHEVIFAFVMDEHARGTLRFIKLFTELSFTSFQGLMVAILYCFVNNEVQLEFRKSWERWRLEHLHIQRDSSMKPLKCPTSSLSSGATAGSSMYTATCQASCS

In the case of `CC[C@H](C)[C@H](NC(=O)[C@H](CCCNC(=N)N)NC(=O)[C@H](CC(=O)O)NC(=O)[C@H](CCCCNC(=O)COCCOCCNC(=O)COCCOCCNC(=O)CC[C@H](NC(=O)CCCCCCCCCCCCCCCCC(=O)O)C(=O)O)NC(=O)C(C)(C)NC(=O)[C@@H](NC(=O)[C@H](CO)NC(=O)[C@H](CC(C)C)NC(=O)[C@H](CC(=O)O)NC(=O)[C@H](CO)NC(=O)[C@@H](NC(=O)[C@@](C)(CC)NC(=O)[C@@H](NC(=O)CNC(=O)[C@H](CCC(=O)O)NC(=O)C(C)(C)NC(=O)[C@@H](N)Cc1ccc(O)cc1)[C@@H](C)O)[C@@H](C)CC)[C@@H](C)CC)C(=O)N[C@@H](Cc1c[nH]cn1)C(=O)N[C@@H](CCC(N)=O)C(=O)NC(C)(C)C(=O)N[C@@H](CCC(=O)O)C(=O)N[C@@H](Cc1ccccc1)C(=O)N[C@H](C(=O)N[C@@H](CCC(=O)O)C(=O)N[C@@H](Cc1c[nH]c2ccccc12)C(=O)N[C@@H](CC(C)C)C(=O)N[C@@H](CC(C)C)C(=O)N[C@@H](C)C(=O)N[C@@H](CCC(N)=O)C(=O)N[C@@H](CCCNC(=N)N)C(=O)NCC(N)=O)[C@@H](C)CC` [SEQ ID NO: 16, H2N-Y-Aib-E-G-T-Iva-I-S-D-L-S-I-Aib-K[{AEEA}2-gGlu-C18OH]-D-R-I-H-Q-Aib-E-F-I-E-W-L-L-A-Q-R-G-NH2], the EC50 [1] is reported as 0.0243 nM, the AUC(0-t) [2, 5] is reported as 27300 ng·h/mL and the Cmax [2, 5] is reported as 5040 ng/mL. For the same compound, the clearance [2, 5] was 0.151 mL/min/kg, the half-life [2, 5] was 440 min and the AUC(0-t) [2, 6] was 82500 ng·h/mL. The Cmax [2, 6] was 4590 ng/mL, the half-life [2, 6] was 341 min and the F ([2]; mouse, in vivo, sc, 0.5 mg/kg) was 150%. For the same compound, the EC50 [3] was over 10 nM, the AUC(0-t) ([4]; in vivo, iv, 0.25 mg/kg) was 41500 ng·h/mL and the Cmax ([4]; in vivo, iv, 0.25 mg/kg) was 7050 ng/mL. For the same compound, the clearance ([4]; in vivo, iv, 0.25 mg/kg) was 0.0957 mL/min/kg, the half-life ([4]; in vivo, iv, 0.25 mg/kg) was 690 min and the AUC(0-t) ([4]; in vivo, sc, 0.5 mg/kg) was 43900 ng·h/mL. The Cmax ([4]; in vivo, sc, 0.5 mg/kg) was 1720 ng/mL, the bioavailability ([4]; in vivo, sc, 0.5 mg/kg) was 55% and the half-life ([4]; in vivo, sc, 0.5 mg/kg) was 648 min. For the same compound, the EC50 (human GIP receptor) was 0.6 nM and the Emax (human GIP receptor) was 91%.
For `CC[C@H](C)[C@H](NC(=O)[C@H](Cc1ccccc1)NC(=O)[C@H](CCC(=O)O)NC(=O)[C@H](CCC(=O)O)NC(=O)[C@H](CCC(N)=O)NC(=O)[C@H](Cc1c[nH]cn1)NC(=O)[C@@H](NC(=O)[C@H](CCCNC(=N)N)NC(=O)[C@H](CC(=O)O)NC(=O)[C@H](CCCCNC(=O)COCCOCCNC(=O)COCCOCCNC(=O)CC[C@H](NC(=O)CCCCCCCCCCCCCCCCC(=O)O)C(=O)O)NC(=O)C(C)(C)NC(=O)[C@@H](NC(=O)[C@H](CO)NC(=O)[C@H](CC(C)C)NC(=O)[C@H](CC(=O)O)NC(=O)[C@H](CO)NC(=O)[C@@H](NC(=O)[C@@](C)(CC)NC(=O)[C@@H](NC(=O)CNC(=O)[C@H](CCC(=O)O)NC(=O)C(C)(C)NC(=O)[C@@H](N)Cc1ccc(O)cc1)[C@@H](C)O)[C@@H](C)CC)[C@@H](C)CC)[C@@H](C)CC)C(=O)N[C@@H](CCC(=O)O)C(=O)N[C@@H](Cc1c[nH]c2ccccc12)C(=O)N[C@@H](CC(C)C)C(=O)N[C@@H](CC(C)C)C(=O)N[C@@H](C)C(=O)N[C@@H](CCC(N)=O)C(=O)N[C@@H](CCCNC(=N)N)C(=O)NCC(N)=O` [SEQ ID NO: 15, H2N-Y-Aib-E-G-T-Iva-I-S-D-L-S-I-Aib-K[{AEEA}2-gGlu-C18OH]-D-R-I-H-Q-E-E-F-I-E-W-L-L-A-Q-R-G-NH2], the EC50 [1] was 0.0216 nM, the EC50 [3] was over 10 nM and the EC50 (human GIP receptor) was 0.8 nM. For the same compound, the Emax (human GIP receptor) was 109%.
`CC[C@H](C)[C@H](NC(=O)[C@H](CCCNC(=N)N)NC(=O)[C@H](CC(=O)O)NC(=O)[C@H](CCCCNC(=O)COCCOCCNC(=O)COCCOCCNC(=O)CC[C@H](NC(=O)CCCCCCCCCCCCCCCCC(=O)O)C(=O)O)NC(=O)C(C)(C)NC(=O)[C@@H](NC(=O)[C@H](CO)NC(=O)[C@H](CC(C)C)NC(=O)[C@H](CC(=O)O)NC(=O)[C@H](CO)NC(=O)[C@@H](NC(=O)[C@H](Cc1ccccc1)NC(=O)[C@@H](NC(=O)CNC(=O)[C@H](CCC(=O)O)NC(=O)C(C)(C)NC(=O)[C@@H](N)Cc1ccc(O)cc1)[C@@H](C)O)[C@@H](C)CC)[C@@H](C)CC)C(=O)N[C@@H](Cc1c[nH]cn1)C(=O)N[C@@H](CCC(N)=O)C(=O)NC(C)(C)C(=O)N[C@@H](CCC(=O)O)C(=O)N[C@@H](Cc1ccccc1)C(=O)N[C@H](C(=O)N[C@@H](CCC(=O)O)C(=O)N[C@@H](Cc1c[nH]c2ccccc12)C(=O)N[C@@H](CC(C)C)C(=O)N[C@@H](CC(C)C)C(=O)N[C@@H](C)C(=O)N[C@@H](CCC(N)=O)C(=O)N[C@@H](CCCNC(=N)N)C(=O)NCC(N)=O)[C@@H](C)CC` [SEQ ID NO: 6, H2N-Y-Aib-E-G-T-F-I-S-D-L-S-I-Aib-K[{AEEA}2-gGlu-C18OH]-D-R-I-H-Q-Aib-E-F-I-E-W-L-L-A-Q-R-G-NH2] gave an EC50 [1] of 0.00593 nM, an AUC(0-t) ([2]; female, C57Bl/6, mouse, plasma, iv, mice, 0.25 mg/kg i.v., read-out: AUClast) of 20800 ng·h/mL and a clearance ([2]; female, C57Bl/6, mouse, plasma, iv, mice, 0.25 mg/kg i.v., read-out: Cl (converted)) of 0.198 mL/min/kg. For the same compound, the Cmax ([2]; female, C57Bl/6, mouse, plasma, iv, mice, 0.25 mg/kg i.v., read-out: Cmax) was 3470 ng/mL, the half-life ([2]; female, C57Bl/6, mouse, plasma, iv, mice, 0.25 mg/kg i.v., read-out: T1/2 (converted)) was 474 min and the AUC(0-t) ([2]; female, C57Bl/6, mouse, plasma, sc, mice, 0.5 mg/kg s.c., read-out: AUClast) was 37500 ng·h/mL. For the same compound, the Cmax ([2]; female, C57Bl/6, mouse, plasma, sc, mice, 0.5 mg/kg s.c., read-out: Cmax) was 2390 ng/mL, the bioavailability ([2]; female, C57Bl/6, mouse, plasma, sc, mice, 0.5 mg/kg s.c., read-out: F) was 91% and the half-life ([2]; female, C57Bl/6, mouse, plasma, sc, mice, 0.5 mg/kg s.c., read-out: T1/2 (converted)) was 493 min. It also gave an EC50 [3] of over 10 nM, an AUC(0-t) ([4]; plasma, iv, rats, 0.25 mg/kg i.v., read-out: AUClast) of 35700 ng·h/mL and a clearance ([4]; plasma, iv, rats, 0.25 mg/kg i.v., read-out: Cl (converted)) of 0.112 mL/min/kg. It also gave a Cmax ([4]; plasma, iv, rats, 0.25 mg/kg i.v., read-out: Cmax) of 4620 ng/mL, a half-life ([4]; plasma, iv, rats, 0.25 mg/kg i.v., read-out: T1/2 (converted)) of 672 min and an AUC(0-t) ([4]; plasma, sc, rats, 0.5 mg/kg s.c., read-out: AUClast) of 69100 ng·h/mL. For the same compound, the Cmax ([4]; plasma, sc, rats, 0.5 mg/kg s.c., read-out: Cmax) was 2880 ng/mL, the bioavailability ([4]; plasma, sc, rats, 0.5 mg/kg s.c., read-out: F) was 98% and the half-life ([4]; plasma, sc, rats, 0.5 mg/kg s.c., read-out: T1/2 (converted)) was 582 min. For the same compound, the EC50 (human GIP receptor) was 1 nM and the Emax (human GIP receptor) was 121%.

Source: patent US20240360194A1, “New Peptides as Potent and Selective GIP Receptor Agonists” (Sanofi, priority 2021, published 2024)
